The values below come from patent US20260271931A1, “HERBICIDAL MIXTURES” (Bayer Aktiengesellschaft, priority 2023, published 2026).

Like-named read-outs stand apart in the source and are kept apart here.

Holding throughout (assay type): in vivo
For experiment [1], the system named is Brachiaria platyfylla (BRAPP). Briefly: Post-emergence action against weeds, greenhouse pot test, visual rating: Brachiaria platyfylla. Conditions: for pest or weed control at 0.4 g/ha / pest or weed control at […]: post-emergence. How it is done: (§1) When the observed efficacies already exceed the formal sum total of the values of the tests with individual applications, they also exceed the expected value according to Colby, which is calculated using the formula below and is likewise regarded as an indication of synergism (cf. S. R. Colby; in Weeds 15 (1967) pp. 20 to 22):
(§2) where: • A=efficacy of the active ingredient (A) in % at an application rate of a [g a.i./ha]; • B=efficacy of the active ingredient (B) in % at an application rate of b [g a.i./ha]; • E^C=expected value of the effect of the combination (A)+(B) in % at the combined application rate a+b [g a.i./ha].
(§3) The observed values (E^A) from the experiments, given suitable low dosages, show an effect of the combinations exceeding the expected values according to Colby (E^C) (Δ).
(§4) Seeds of mono- and dicotyledonous weeds were placed in sandy loam in pots, covered with soil and grown in a greenhouse under good growth conditions (temperature, air humidity, water supply). Two to three weeks after sowing, the test plants were treated at the two- to four-leaf stage with the compositions of the invention. The compositions of the invention, formulated as spray powders or as emulsion concentrates, were sprayed onto the green parts of the plant in various dosages with an application rate equivalent to […] of water. After the test plants had been kept in the greenhouse under optimum growth conditions for 3 weeks, the activity of the preparations was rated visually in comparison to untreated controls.
(§5) 100% efficacy means complete control of the particular weed tested.
(§6) 0% efficacy means zero control of the particular weed tested.
(§7) Expected values according to Colby are reported under E.
(§8) The exceedance of the expected value E is given as Δ (=synergistic effect).
(§9) The rating period is reported in days after application (DAT).

In experiment [2] the test system is Eleusine indica (ELEIN). Briefly: Post-emergence action against weeds, greenhouse pot test, visual rating: Eleusine indica. Conditions: for pest or weed control at 0.4 g/ha / pest or weed control at […]: Eleusine indica, post-emergence. How it is done:
as §1, §2, §3, §4, §5, §6, §7, §8, §9

For experiment [3], the system named is Kochia scoparia (KCHSC). Briefly: Post-emergence action against weeds, greenhouse pot test, visual rating: Kochia scoparia.
The test system of experiment [4] is Lolium rigidum (LOLRI). Briefly: Post-emergence action against weeds, greenhouse pot test, visual rating: Lolium rigidum. Conditions: for pest or weed control at 0.4 g/ha / pest or weed control at […]: Lolium rigidum, 504 h, 21 DAT, read-out: Herbicidal effect [%] on LOLRI 21 DAT.
The test system of experiment [5] is Pharbitis purpurea (PHBPU). Briefly: Post-emergence action against weeds, greenhouse pot test, visual rating: Pharbitis purpurea. How it is done: as §1, §2, §3, §4, §5, §6, §7, §8, §9
The test system of experiment [6] is Pharbitis purpurea (PHBPU). The experiment is described as above. The following applies: 0.4 g a.i./ha.
The subject of experiment [7] is Avena fatua (AVEFA). Briefly: Post-emergence action against weeds, greenhouse pot test, visual rating: Avena fatua.
In experiment [8] the test system is Bidens pilosa (BIDPI). Briefly: Post-emergence action against weeds, greenhouse pot test, visual rating: Bidens pilosa.
Experiment [9] has as its system Echinochloa crus-galli (ECHCG). Briefly: Post-emergence action against weeds, greenhouse pot test, visual rating: Echinochloa crus-galli.
Experiment [10] deals with Sorghum halepense (SORHA). Briefly: Post-emergence action against weeds, greenhouse pot test, visual rating: Sorghum halepense. Here is the method:
as §1, §2, §3, §4, §5, §6, §7, §8, §9

Experiment [11] has as its system Centaurea cyanus (CENCY). Briefly: Post-emergence action against weeds, greenhouse pot test, visual rating: Centaurea cyanus. Conditions: 240 h, read-out: Herbicidal effect [%] on CENCY 10 DAT.
Experiment [12] deals with Centaurea cyanus (CENCY). The experiment is described as above. Here is the method:
as §1, §2, §3, §4, §5, §6, §7, §8, §9

Setting [13] is: 504 h, 0.4 g a.i./ha, read-out: Herbicidal effect [%] on ELEIN 21 DAT.
Where [14] appears, read: Bassia scoparia, post-emergence, 504 h, 0.4 g a.i./ha, read-out: Herbicidal effect [%] on KCHSC 21 DAT.

Take `C#CCN1C(=O)COc2cc(F)c(N3C(=O)C4=C(CCCC4)C3=O)cc21` [Flumioxazin, flumioxazin]: the pest or weed control at 0.4 g/ha was determined as 30% in [1] (240 h, 0.4 g a.i./ha, read-out: Herbicidal effect [%] on BRAPP 10 DAT); 10% in [1] (504 h, 0.4 g a.i./ha, read-out: Herbicidal effect [%] on BRAPP 21 DAT); 30% in [2] (240 h, 0.4 g a.i./ha, read-out: Herbicidal effect [%] on ELEIN 10 DAT); 0% in [2] (setting [13]); 10% in experiment [3] (setting [14]); 0% in experiment [4] (0.4 g a.i./ha). Further, the “Herbicidal effect [%] on KCHSC 10 DAT” value in [3] (0.4 g a.i./ha) was 30%. Also, the “Herbicidal effect [%] on PHBPU 21 DAT” value in [5] (0.4 g a.i./ha) turned out to be 30%. In experiment [6], the “Herbicidal effect [%] on PHBPU 10 DAT” value turned out to be 50%.

Regarding `COc1cc(OC)nc(NC(=O)NS(=O)(=O)c2cc(NC=O)ccc2C(=O)N(C)C)n1` [Foramsulfuron, foramsulfuron], the “Herbicidal effect [%] on AVEFA 21 DAT” value in experiment [7] (1 g a.i./ha) was 70%. Moreover, the pest or weed control at 1 g/ha in experiment [7] (Avena fatua, 240 h, 10 DAT, 1 g a.i./ha, read-out: Herbicidal effect [%] on AVEFA 10 DAT) is 60%; in experiment [3] (Bassia scoparia, post-emergence, 504 h, 1 g a.i./ha, read-out: Herbicidal effect [%] on KCHSC 21 DAT) it was 20%; in experiment [11] (1 g a.i./ha) it was 30%. Further, the “Herbicidal effect [%] on BIDPI 10 DAT” value in experiment [8] (1 g a.i./ha) is recorded as 20%. In addition, the “Herbicidal effect [%] on BIDPI 21 DAT” value in experiment [8] (1 g a.i./ha) turned out to be 30%. In addition, the “Herbicidal effect [%] on ECHCG 10 DAT” value in experiment [9] (1 g a.i./ha) worked out at 70%. Also, the “Herbicidal effect [%] on SORHA 21 DAT” value in [10] (1 g a.i./ha) is 20%.

Consider `CCOC(=O)COc1ncccc1Oc1cc(-n2c(=O)cc(C(C)(F)F)n(C)c2=O)c(F)cc1Cl` [Compound A1, ethyl [(3-{2-chloro-5-[4-(1,1-difluoroethyl)-3-methyl-2,6-dioxo-3,6-dihydropyrimidin-1(2H)-yl]-4-fluorophenoxy}pyridin-2-yl)oxy]acetate], for which the “Herbicidal effect [%] on AVEFA 21 DAT” value in [7] (0.15 g a.i./ha) was 10%; in [7] (0.45 g a.i./ha) it was 20%. In addition, the pest or weed control at […] in experiment [7] (Avena fatua, 240 h, 10 DAT, 0.15 g a.i./ha, read-out: Herbicidal effect [%] on AVEFA 10 DAT) amounted to 5%; in experiment [7] (Avena fatua, 240 h, 10 DAT, 0.45 g a.i./ha, read-out: Herbicidal effect [%] on AVEFA 10 DAT), 20%; in [1] (240 h, 0.15 g a.i./ha, read-out: Herbicidal effect [%] on BRAPP 10 DAT), 30%; in [1] (240 h, 0.45 g a.i./ha, read-out: Herbicidal effect [%] on BRAPP 10 DAT) it was 45%; in experiment [1] (504 h, 0.15 g a.i./ha, read-out: Herbicidal effect [%] on BRAPP 21 DAT) it was 0%; in [1] (504 h, 0.45 g a.i./ha, read-out: Herbicidal effect [%] on BRAPP 21 DAT), 0%. Also, the pest or weed control at […] was 10% in [2] (240 h, 0.15 g a.i./ha, read-out: Herbicidal effect [%] on ELEIN 10 DAT); 35% in [2] (240 h, 0.45 g a.i./ha, read-out: Herbicidal effect [%] on ELEIN 10 DAT); 5% in experiment [2] (504 h, 0.15 g a.i./ha, read-out: Herbicidal effect [%] on ELEIN 21 DAT); 5% in [2] (504 h, 0.45 g a.i./ha, read-out: Herbicidal effect [%] on ELEIN 21 DAT); 0% in experiment [3] (Bassia scoparia, post-emergence, 504 h, 0.15 g a.i./ha, read-out: Herbicidal effect [%] on KCHSC 21 DAT); 5% in [3] (Bassia scoparia, post-emergence, 504 h, 0.45 g a.i./ha, read-out: Herbicidal effect [%] on KCHSC 21 DAT). For the same molecule, the pest or weed control at […] amounted to 5% in [4] (0.15 g a.i./ha), 5% in experiment [4] (0.45 g a.i./ha), 15% in [11] (0.15 g a.i./ha) and 40% in experiment [11] (0.45 g a.i./ha). The “Herbicidal effect [%] on BIDPI 10 DAT” value in experiment [8] (0.15 g a.i./ha) was 20%; in experiment [8] (0.45 g a.i./ha), 57.5%. In addition, the “Herbicidal effect [%] on BIDPI 21 DAT” value turned out to be 10% in [8] (0.15 g a.i./ha) and 30% in experiment [8] (0.45 g a.i./ha). The “Herbicidal effect [%] on CENCY 21 DAT” value in [12] (0.15 g a.i./ha) is on record as 15%; in experiment [12] (0.45 g a.i./ha), 20%. For the same molecule, the “Herbicidal effect [%] on ECHCG 10 DAT” value in [9] (0.15 g a.i./ha) is recorded as 10%; in experiment [9] (0.45 g a.i./ha), 25%. The “Herbicidal effect [%] on ECHCG 21 DAT” value in [9] (0.15 g a.i./ha) was 10%; in experiment [9] (0.45 g a.i./ha), 20%. The “Herbicidal effect [%] on KCHSC 10 DAT” value in experiment [3] (0.15 g a.i./ha) stood at 5%; in experiment [3] (0.45 g a.i./ha), 25%. In addition, the “Herbicidal effect [%] on LOLRI 10 DAT” value in experiment [4] (0.15 g a.i./ha) worked out at 10%; in experiment [4] (0.45 g a.i./ha) it was 15%. For the same molecule, the “Herbicidal effect [%] on PHBPU 10 DAT” value in experiment [5] (0.15 g a.i./ha) is listed as 20%; in [5] (0.45 g a.i./ha) it was 77.5%. Further, the “Herbicidal effect [%] on PHBPU 21 DAT” value in experiment [5] (0.15 g a.i./ha) was found to be 20%; in experiment [5] (0.45 g a.i./ha) it was 50%. The “Herbicidal effect [%] on SORHA 10 DAT” value was 47.5% in [10] (0.15 g a.i./ha) and 45% in experiment [10] (0.45 g a.i./ha). The “Herbicidal effect [%] on SORHA 21 DAT” value in experiment [10] (0.15 g a.i./ha) came out at 49%; in experiment [10] (0.45 g a.i./ha), 40%.

As for `C=C[C@]1(C(=O)N[C@H]2CO[C@@H](C(=O)OC)C2)CC(c2cc(F)cc(F)c2)=NO1` (relative stereo) [Icafolin-methyl, methyl rel-(2R,4R)-4-[[(5S)-3-(3,5-difluorophenyl)-5-vinyl-4H-isoxazole-5-carbonyl]amino]tetrahydrofuran-2-carboxylate], the “Herbicidal effect [%] on AVEFA 21 DAT” value in experiment [7] (0.4 g a.i./ha) came out at 10%. The pest or weed control at 0.4 g/ha in experiment [2] (setting [13]), in experiment [3] (setting [14]), in experiment [4] (0.4 g a.i./ha) and in [11] (0.4 g a.i./ha) was 0% throughout. Also, the “Herbicidal effect [%] on LOLRI 10 DAT” value in experiment [4] (0.4 g a.i./ha) stood at 10%. The “Herbicidal effect [%] on PHBPU 10 DAT” value in experiment [6] was found to be 0%.

For `C#CCN1C(=O)C(F)(F)Oc2cc(F)c(-n3c(=O)n(C)c(=S)n(C)c3=O)cc21` [Trifludimoxazin, trifludimoxazin], in experiment [8] (0.4 g a.i./ha), the “Herbicidal effect [%] on BIDPI 10 DAT” value worked out at 60% and the “Herbicidal effect [%] on BIDPI 21 DAT” value was found to be 60%. In addition, in [1] (0.4 g a.i./ha), the “Herbicidal effect [%] on BRAPP 10 DAT” value is 40% and the “Herbicidal effect [%] on BRAPP 21 DAT” value is reported as 0%. For the same molecule, the “Herbicidal effect [%] on CENCY 10 DAT” value in experiment [12] (0.4 g a.i./ha) was found to be 30%. Further, in experiment [2] (0.4 g a.i./ha), the “Herbicidal effect [%] on ELEIN 10 DAT” value is recorded as 70% and the “Herbicidal effect [%] on ELEIN 21 DAT” value is given as 20%. For the same molecule, in experiment [3] (0.4 g a.i./ha), the “Herbicidal effect [%] on KCHSC 10 DAT” value was determined as 85% and the “Herbicidal effect [%] on KCHSC 21 DAT” value was determined as 60%. In addition, in experiment [4] (0.4 g a.i./ha), the “Herbicidal effect [%] on LOLRI 10 DAT” value is 20%. In addition, the “Herbicidal effect [%] on PHBPU 21 DAT” value in [5] (0.4 g a.i./ha) came out at 40%. Moreover, the “Herbicidal effect [%] on PHBPU 10 DAT” value in experiment [6] was determined as 80%.
